Experimental data taken from ChEMBL document CHEMBL1201862, “PubChem BioAssay data set” (2004).
Active and inactive are the calls of the source.

How the values were obtained:
Cytochrome P450 3A4 [1] = target: T1, Cytochrome P450 3A4 (Homo sapiens, UniProt P08684);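 note: CYP3A4 tested as one member of a cytochrome P450 panel screen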
[2] = Luminescence-based cell-based high throughput dose response assay to identify activators of the DAF-12 from the parasite S. stercoralis (ssDAF-12).; assay type: functional
[3] = target: T2, Oxysterols receptor LXR-beta (Homo sapiens, UniProt P55055); assay type: functional, cell-based
T2 sequence (P55055 whole entry): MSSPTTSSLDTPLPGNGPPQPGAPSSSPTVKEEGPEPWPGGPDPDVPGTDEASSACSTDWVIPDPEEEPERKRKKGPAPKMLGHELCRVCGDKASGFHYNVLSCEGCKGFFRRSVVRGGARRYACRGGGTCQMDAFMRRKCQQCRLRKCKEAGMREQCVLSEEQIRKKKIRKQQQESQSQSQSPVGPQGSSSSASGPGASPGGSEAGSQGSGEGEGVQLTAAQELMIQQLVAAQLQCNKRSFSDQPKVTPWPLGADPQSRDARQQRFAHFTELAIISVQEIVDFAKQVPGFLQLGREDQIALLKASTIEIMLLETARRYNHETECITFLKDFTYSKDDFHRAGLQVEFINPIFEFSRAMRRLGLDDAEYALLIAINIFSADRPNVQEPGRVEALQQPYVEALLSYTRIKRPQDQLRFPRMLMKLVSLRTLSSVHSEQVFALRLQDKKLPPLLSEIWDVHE

cells [4] = assay: cells
Cytochrome P450 2D6 = Cytochrome P450 2D6 (Homo sapiens, UniProt P10635);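 note: CYP2D6 member of a cytochrome P450 panel assay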
Sequence of Cytochrome P450 2D6 (P10635 whole entry, the tested form may be a part): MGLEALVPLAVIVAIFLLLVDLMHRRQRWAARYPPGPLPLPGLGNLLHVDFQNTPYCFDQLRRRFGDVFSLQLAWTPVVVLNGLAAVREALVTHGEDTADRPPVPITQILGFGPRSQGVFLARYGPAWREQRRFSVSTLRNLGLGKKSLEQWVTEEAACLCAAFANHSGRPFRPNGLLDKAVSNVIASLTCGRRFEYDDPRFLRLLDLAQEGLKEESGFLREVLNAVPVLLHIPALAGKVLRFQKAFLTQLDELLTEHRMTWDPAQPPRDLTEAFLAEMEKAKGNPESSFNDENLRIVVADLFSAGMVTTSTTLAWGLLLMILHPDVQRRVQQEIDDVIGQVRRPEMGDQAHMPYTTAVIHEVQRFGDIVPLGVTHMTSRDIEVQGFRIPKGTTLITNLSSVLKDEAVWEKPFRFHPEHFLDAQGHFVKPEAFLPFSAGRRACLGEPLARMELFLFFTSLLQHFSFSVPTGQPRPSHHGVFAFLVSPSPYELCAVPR

[5] = target: T2, Oxysterols receptor LXR-beta; assay: LXR agonists, Gal4 luciferase reporter, dose response, counter-screen for ssDAF-12 agonist project, cell-based, luminescence, HEK293, S. stercoralis campaign (AID 720737); assay type: functional; conditions: read-out: IC50 (the source's name)
cells [6] = assay: cells; remark: listed apart in the source
H4 = assay: Luminescence Cell-Based Dose Response HTS to Identify Activators of 5'UTR Stem-Loop Driven Prion Protein mRNA Translation in H4 Neuroglioblastoma Cells. [Related pubchem assays: 1829 (Project Summary), 1814 (Primary HTS)]; assay type: functional; conditions: Homo sapiens
[7] = Luminescence Cell-Based Dose Confirmation HTS to Identify Activators of 5'UTR Stem-Loop Driven Alpha-Synuclein mRNA Translation in H4 Neuroglioblastoma Cells. [Related pubchem assays: 1829 (Project Summary), 1814 (Primary HTS)]; assay type: functional
[8] = Luminescence Cell-Based Dose Response to Identify Activators of 5'UTR Stem-Loop Driven Prion Protein mRNA Translation in H4-C Neuroglioblastoma Cells. [Related pubchem assays: 1829 (Project Summary), 1814 (Primary HTS)]; assay type: functional
[9] = Luminescence Cell-Based Dose Response to Identify Activators of Luciferase Translation or Activity in H4-C Neuroglioblastoma Cells. [Related pubchem assays: 1829 (Project Summary), 1814 (Primary HTS)]; assay type: functional
[10] = Luminescence Cell-Based Dose Confirmation to Identify Activators of 5'UTR Stem-Loop Driven Alpha-Synuclein mRNA Translation in H4 Neuroglioblastoma Cells. [Related pubchem assays: 1829 (Project Summary), 1814 (Primary HTS)]; assay type: functional
[11] = HEK293T cytotoxicity, dose response, cytotoxicity control for miR-122 modulator project, cell-based, activator set, cherry-pick (AID 720690); assay type: functional;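 note: HEK293T human cells scored for general mammalian cytotoxicity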
[12] = miR-122 activators in hepatoma reporter cells, dose response, cell-based, Huh7 psiCHECK-miR122, Renilla luciferase, cherry-picked (AID 651956); assay type: functional;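 note: huh7 hepatoma cells stably carrying a psiCHECK-2 miR-122 sensor plasmid; renilla luciferase signal reporting endogenous miR-122 activity after 48 h compound exposure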
[13] = HEK293T cytotoxicity, dose response, cytotoxicity control for miR-122 modulator project, cell-based, inhibitor set, cherry-pick, set 2 (AID 720697); assay type: functional
[14] = Luminescence Cell-Based Dose Response HTS to Identify Activators of Luciferase Translation or Activity in H4 […] Cells. [Related pubchem assays: 1829 (Project Summary), 1814 (Primary HTS)]; assay type: functional
Cytochrome P450 3A4 [15] = target: T1, Cytochrome P450 3A4; remark: listed apart in the source
[16] = HepG2 cell cytotoxicity, dose response, cytotoxicity control, ATP luminescence, cherry-pick, set 6 (AID 1053125); assay type: functional, cell-based
[17] = target: Heat shock protein HSP 90-alpha (Homo sapiens, UniProt P07900); assay type: functional, organism-based
cells [18] = conditions: A549
[19] = Luminescence Cell-Based Dose Retest to Confirm Inhibitors of Cancer Stem Cells. [Related pubchem assays (depositor defined):AID2717, AID2721]; assay type: functional; conditions: Homo sapiens
cells [20] = conditions: HEK293;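 note: cells exposed to compound for 48 hours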
[21] = target: T2, Oxysterols receptor LXR-beta; assay type: functional, cell-based; remark: listed apart in the source
[22] = HEK293 Cytotoxicity Assay Measured in Cell-Based System Using Plate Reader - 7071-01_Inhibitor_Dose_CherryPick_Activity_Set2.; assay type: functional
HEK293 = assay: HEK293T cell cytotoxicity, dose response, cytotoxicity control, ATP luminescence, cherry-pick samples (AID 687005); assay type: functional, cell-based; conditions: Homo sapiens;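 note: cells exposed to compound for 48 hours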
[23] = HepG2 cell cytotoxicity, dose response, cytotoxicity control, plate reader, dry powder samples (AID 1159569); assay type: functional, cell-based;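 note: inhibitor potency with signal falling toward the positive control level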
Paired box protein Pax-8 = Paired box protein Pax-8 (Homo sapiens, UniProt Q06710); assay: inhibitors of PAX8-driven TPO luciferase reporter, dose response, RMG-I cells, cherry-pick (AID 687027); assay type: functional, cell-based;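 note: luciferase reporter driven by Pax8 target thyroperoxidase promoter measured by SteadyGlo luminescence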
Sequence of Paired box protein Pax-8 (Q06710 whole entry): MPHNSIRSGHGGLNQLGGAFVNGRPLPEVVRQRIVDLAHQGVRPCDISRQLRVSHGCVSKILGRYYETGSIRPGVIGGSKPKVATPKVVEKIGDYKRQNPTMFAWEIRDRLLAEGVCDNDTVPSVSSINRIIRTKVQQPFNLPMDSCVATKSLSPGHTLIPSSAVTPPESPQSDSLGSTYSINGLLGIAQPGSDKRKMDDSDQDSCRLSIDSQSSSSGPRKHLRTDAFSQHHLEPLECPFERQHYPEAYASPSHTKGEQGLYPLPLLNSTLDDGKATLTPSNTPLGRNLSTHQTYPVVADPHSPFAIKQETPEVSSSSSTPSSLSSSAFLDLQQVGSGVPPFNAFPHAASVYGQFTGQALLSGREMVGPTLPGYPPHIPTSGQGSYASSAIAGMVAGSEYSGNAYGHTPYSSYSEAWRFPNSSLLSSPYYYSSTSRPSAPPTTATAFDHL

[24] = A2780 ovarian cancer cell cytotoxicity, dose response, cytotoxicity control, plate reader, dry powder samples (AID 743046); assay type: functional, cell-based
[25] = cytotoxicity in OVCAR8 ovarian cancer cells, dose response, PAX8 project, cell-based, plate reader, dry powder samples (AID 743197); assay type: functional; conditions: OVCAR-8
[26] = P. falciparum 3D7-ScDHODH growth inhibitors, dose response, SYBR Green, dry powder samples (AID 1159570); assay type: functional, cell-based;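 note: parasite growth measured after 72 hours of compound exposure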
[27] = P. falciparum ATP4 D1247Y mutant growth inhibitors, dose response, NITD609-resistant line, SYBR Green, dry powder (AID 1159571); assay type: functional, cell-based;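 note: parasites synchronized at ring stage by sorbitol before testing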
[28] = HepG2 cell cytotoxicity, dose response, cytotoxicity control, plate reader, cherry-pick, antagonist series (AID 743416); assay type: functional, cell-based
[29] = NIH:OVCAR-3 ovarian cancer cell cytotoxicity, dose response, PAX8 inhibitor project, plate reader, dry powder samples (AID 743044); assay type: functional, cell-based
[30] = IGROV1 ovarian cancer cell cytotoxicity, dose response, PAX8 inhibitor project, plate reader, dry powder samples (AID 743043); assay type: functional, cell-based; conditions: IGROV-1
[31] = P. falciparum Dd2 growth inhibitors, dose response, SYBR Green, cherry-picked samples (AID 1159567); assay type: functional, cell-based
[32] = HEK293 cell cytotoxicity, dose response, cytotoxicity control, plate reader, cherry-picked samples (AID 743446); assay type: functional, cell-based
[33] = P. falciparum Dd2 growth inhibitors, dose response, SYBR Green, dry powder samples (AID 1159566); assay type: functional, cell-based;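 note: potency for growth inhibition with lower SYBR green DNA signal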
[34] = A549 cell cytotoxicity, dose response, cytotoxicity control, plate reader, cherry-pick, antagonist series (AID 743412); assay type: functional, cell-based
[35] = MC4R antagonists, dose response, counter-screen for LGR2 antagonist project, cell-based, plate reader, cherry pick (AID 743444); assay type: functional;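 note: transfected HEK 293 cells stimulated with alpha-MSH peptide; potency of inhibitors of the alpha-MSH evoked signal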
[36] = LGR2 antagonists, dose response, cell-based, HEK293, CRE-luciferase reporter, cherry pick, set 2 (AID 743343); assay type: functional;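 note: transfected cells were stimulated with diluted bursicon conditioned medium after compound addition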
[37] = IOSE-T80 ovarian epithelial cell cytotoxicity, dose response, cytotoxicity control for PAX8 inhibitor project, plate reader, dry powder samples (AID 743045); assay type: functional, cell-based
[38] = HIV Env cell-cell fusion inhibitors, dose response, HIV entry, plate reader, dry powder (AID 687023); assay type: functional, cell-based
[39] = inhibitors of clade B AD8 Env fusion, dose response, cell-based, cherry-pick (AID 652062); assay type: functional;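 note: luciferase signal from cell-cell fusion driven by HIV-1 clade B AD8 Env; potency is for inhibitors of fusion seen as a drop in luminescence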
[40] = inhibitors of HIV Env-driven cell fusion, dose response, cherry-pick (AID 652057); assay type: functional, cell-based
[41] = ZM109 Env clade C HIV-1 fusion inhibitors, dose response, HeLa effector, CEM target cells, luciferase, cherry-pick (AID 652058); assay type: functional, cell-based
[42] = target: Potassium channel subfamily K member 3 (Homo sapiens, UniProt O14649); assay: TASK1 (KCNK3) potassium channel inhibitors, SAR follow-up, CHO cells, FluxOR thallium flux (AID 652212); assay type: functional
Sequence of Potassium channel subfamily K member 3 (O14649 whole entry): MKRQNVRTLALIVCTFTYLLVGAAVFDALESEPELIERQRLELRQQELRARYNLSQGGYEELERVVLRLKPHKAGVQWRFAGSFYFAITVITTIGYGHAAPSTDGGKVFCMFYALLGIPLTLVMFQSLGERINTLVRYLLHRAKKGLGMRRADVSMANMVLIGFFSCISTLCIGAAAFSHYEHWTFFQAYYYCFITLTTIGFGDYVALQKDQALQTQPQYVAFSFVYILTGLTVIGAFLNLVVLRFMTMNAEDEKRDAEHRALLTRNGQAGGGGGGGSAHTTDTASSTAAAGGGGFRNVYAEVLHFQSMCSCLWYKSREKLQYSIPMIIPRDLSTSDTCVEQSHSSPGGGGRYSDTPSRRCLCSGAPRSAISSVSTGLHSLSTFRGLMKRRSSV

[43] = HeLa cell cytotoxicity, dose response, cytotoxicity control, 24 h, plate reader, dry powder (AID 686928); assay type: functional, cell-based
[44] = A549 cell cytotoxicity, dose response, cytotoxicity control, CellTiter-Glo luminescence, dry powder, set 3 (AID 743146); assay type: functional, cell-based
[45] = HEK293 cell cytotoxicity, dose response, cytotoxicity control, ATP luminescence, dry powder, Set6 (AID 743142); assay type: functional, cell-based
[46] = TRPM1 promoter luciferase reporter signal decrease, dose response, MITF inhibitor project, cell-based, SK-MEL-5, dry powder, set 8 (AID 624430); assay type: functional
[47] = MITF Orthogonal Assay: SK-MEL-5 CTG Assay Measured in Cell-Based System Using Plate Reader - 2084-02_Inhibitor_Dose_DryPowder_Activity_Set7.; assay type: functional
[48] = MITF: Counter assay: A375 proliferation Measured in Cell-Based System Using Plate Reader - 2084-03_Inhibitor_Dose_DryPowder_Activity_Set8.; assay type: functional; conditions: A-375
[49] = target: Metabotropic glutamate receptor 3 (Rattus norvegicus, UniProt P31422); assay: mGlu3 negative allosteric modulator potency, dose response, HEK/GIRK cells, thallium flux, rat (AID 651839); assay type: functional
Sequence of Metabotropic glutamate receptor 3 (P31422 whole entry): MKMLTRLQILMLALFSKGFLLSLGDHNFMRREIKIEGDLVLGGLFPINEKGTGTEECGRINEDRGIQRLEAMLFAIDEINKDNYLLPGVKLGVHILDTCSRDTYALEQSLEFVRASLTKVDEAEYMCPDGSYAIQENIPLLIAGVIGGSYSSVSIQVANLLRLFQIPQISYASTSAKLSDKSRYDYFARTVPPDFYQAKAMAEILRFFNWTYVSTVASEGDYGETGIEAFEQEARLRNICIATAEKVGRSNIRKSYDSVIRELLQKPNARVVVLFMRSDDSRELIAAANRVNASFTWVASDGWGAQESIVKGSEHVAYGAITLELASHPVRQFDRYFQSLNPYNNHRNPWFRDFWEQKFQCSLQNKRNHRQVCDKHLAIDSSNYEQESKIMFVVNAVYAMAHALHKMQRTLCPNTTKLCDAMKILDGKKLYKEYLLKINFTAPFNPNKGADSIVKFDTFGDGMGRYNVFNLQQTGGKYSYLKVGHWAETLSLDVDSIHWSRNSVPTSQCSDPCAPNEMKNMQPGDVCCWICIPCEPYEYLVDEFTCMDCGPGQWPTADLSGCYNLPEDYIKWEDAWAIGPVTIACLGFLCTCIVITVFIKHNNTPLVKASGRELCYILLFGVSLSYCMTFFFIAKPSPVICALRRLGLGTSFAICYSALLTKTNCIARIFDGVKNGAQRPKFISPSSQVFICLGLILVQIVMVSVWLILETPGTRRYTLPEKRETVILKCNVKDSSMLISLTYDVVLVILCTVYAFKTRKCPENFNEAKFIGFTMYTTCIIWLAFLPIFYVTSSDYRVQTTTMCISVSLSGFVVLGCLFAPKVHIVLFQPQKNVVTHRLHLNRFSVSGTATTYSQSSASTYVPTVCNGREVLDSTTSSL

[50] = Late stage results for the probe development effort to identify inhibitors of Plasmodium falciparum gametocytes: Luminescence-based cell-based high throughput dose response assay to identify inhibitors of viability of late stage Plasmodium falciparum gametocytes.; assay type: functional
[51] = M. tuberculosis growth inhibition, HTS (AID 449762); assay type: functional
Cytochrome P450 2C9 = Cytochrome P450 2C9 (Homo sapiens, UniProt P11712)
Sequence of Cytochrome P450 2C9 (P11712 whole entry): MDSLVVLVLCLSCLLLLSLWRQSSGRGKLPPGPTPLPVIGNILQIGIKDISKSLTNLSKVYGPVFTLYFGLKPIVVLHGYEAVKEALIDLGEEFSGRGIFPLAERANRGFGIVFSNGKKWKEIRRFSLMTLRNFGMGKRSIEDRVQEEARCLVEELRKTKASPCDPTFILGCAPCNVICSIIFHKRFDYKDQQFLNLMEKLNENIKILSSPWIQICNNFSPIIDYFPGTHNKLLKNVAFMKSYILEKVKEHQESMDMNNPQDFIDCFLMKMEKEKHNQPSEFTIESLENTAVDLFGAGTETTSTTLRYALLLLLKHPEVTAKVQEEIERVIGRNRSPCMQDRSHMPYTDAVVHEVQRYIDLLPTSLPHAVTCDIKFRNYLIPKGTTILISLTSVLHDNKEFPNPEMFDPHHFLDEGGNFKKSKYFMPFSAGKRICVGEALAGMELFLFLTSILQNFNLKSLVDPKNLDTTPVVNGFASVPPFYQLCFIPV

NS3 = NS3 (Hepatitis C virus, UniProt A3EZJ3); assay: HCV NS3 helicase inhibitor potency, dose response, biochemical, fluorescence polarization, ChemBridge library (AID 743264)
Sequence of NS3 (A3EZJ3 whole entry): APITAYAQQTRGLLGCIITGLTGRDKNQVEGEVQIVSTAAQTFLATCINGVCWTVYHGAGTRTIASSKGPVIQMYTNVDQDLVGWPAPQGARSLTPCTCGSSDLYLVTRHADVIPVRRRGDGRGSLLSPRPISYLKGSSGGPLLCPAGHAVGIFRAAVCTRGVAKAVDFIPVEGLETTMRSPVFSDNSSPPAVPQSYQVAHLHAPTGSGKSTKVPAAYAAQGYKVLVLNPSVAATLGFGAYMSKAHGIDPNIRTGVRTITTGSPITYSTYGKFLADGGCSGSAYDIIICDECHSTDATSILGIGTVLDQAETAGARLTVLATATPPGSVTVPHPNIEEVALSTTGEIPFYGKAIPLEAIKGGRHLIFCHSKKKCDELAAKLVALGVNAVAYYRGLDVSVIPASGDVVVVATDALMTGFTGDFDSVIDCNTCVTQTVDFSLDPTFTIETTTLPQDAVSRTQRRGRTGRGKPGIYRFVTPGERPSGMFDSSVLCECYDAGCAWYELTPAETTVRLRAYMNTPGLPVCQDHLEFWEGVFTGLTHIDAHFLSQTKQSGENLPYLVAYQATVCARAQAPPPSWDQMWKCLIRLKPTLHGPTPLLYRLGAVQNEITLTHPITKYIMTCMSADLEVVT

T1 sequence (P08684 whole entry): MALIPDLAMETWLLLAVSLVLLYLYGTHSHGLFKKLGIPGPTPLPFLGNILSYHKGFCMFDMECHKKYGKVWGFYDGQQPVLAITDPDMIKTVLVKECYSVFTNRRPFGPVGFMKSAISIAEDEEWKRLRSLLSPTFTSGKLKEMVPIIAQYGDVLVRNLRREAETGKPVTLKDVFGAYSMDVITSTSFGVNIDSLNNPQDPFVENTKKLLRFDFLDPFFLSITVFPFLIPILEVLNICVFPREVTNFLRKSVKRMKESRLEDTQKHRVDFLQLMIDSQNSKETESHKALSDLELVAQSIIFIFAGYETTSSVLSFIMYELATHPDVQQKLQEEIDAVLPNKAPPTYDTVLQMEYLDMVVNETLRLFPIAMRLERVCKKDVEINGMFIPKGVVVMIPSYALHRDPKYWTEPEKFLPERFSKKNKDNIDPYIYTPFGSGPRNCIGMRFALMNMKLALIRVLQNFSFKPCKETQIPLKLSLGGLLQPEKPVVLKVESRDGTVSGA

## Cc1ccccc1-c1cc(-c2ccccc2O)on1
Cytochrome P450 3A4 [1]
  AC50: 31.6 µM (inconclusive)
[2]
  IC50: > 67.6 µM (inactive)
[3]
  EC50: > 67.6 µM (inactive)
Cells [4]
  EC50: > 67.6 µM (inactive)
Cytochrome P450 2D6
  AC50: 22.4 µM (inconclusive)
[5]
  EC50: > 67.6 µM (inactive)

## COc1cc(C(=O)NCCCNc2nc3c(C)cc(C)cc3cc2C#N)cc(OC)c1OC
Cells [6]
  AC50: 4.79 µM (active)

## CCOC(=O)c1cc2c(C)n(-c3ccc(C)cc3)c(C)c2ccc1=O
H4
  EC50: < 0.1 µM (active)
[7]
  EC50: 0.1 µM (active)
[8]
  EC50: 0.333 µM (active)
[9]
  EC50: 0.376 µM (active)
[10]
  EC50: 0.262 µM (active)
[11]
  AC50: 3.93 µM (active)
[12]
  AC50: 1.46 µM (active)
[13]
  AC50: 7.08 µM (active)
[14]
  EC50: < 0.1 µM (active)
Cytochrome P450 3A4 [15]
  AC50: inconclusive

## CCCCCCc1cc2cc(S(=O)(=O)c3ccc(Cl)cc3)c(=O)oc2cc1O
[16]
  AC50: 41.4 µM (active)
[17]
  AC50: 0.476 µM (active)
Cells [18]
  AC50: 35.6 µM (active)
[19]
  AC50: 0.797 µM (active)
Cells [20]
  AC50: > 52 µM (inactive)

## Cc1ccc(N/C=C(/C#N)c2ccsc2)cc1C
[21]
  EC50: > 67.5 µM (inactive)

## COc1ccccc1-c1ccc([C@H]2[C@H](C#N)N(C(=O)C3CC3)[C@H]2CO)cc1
[22]
  AC50: 24.8 µM (active)
HEK293
  AC50: 24.8 µM (active)

## N#Cc1cccc(-c2ccc([C@@H]3[C@@H]4CN(C(=O)C5CC5)C[C@H]3N4)cc2)c1
[23]
  AC50: 2.84 µM (active)
Paired box protein Pax-8
  AC50: 1.25 µM (active)
[24]
  AC50: 9.05 µM (active)
[25]
  AC50: 4.43 µM (active)
[26]
  AC50: 0.405 µM (active)
[27]
  AC50: 0.455 µM (active)
[28]
  AC50: 5.88 µM (active)
[29]
  AC50: 12.2 µM (active)
[30]
  AC50: 7.63 µM (active)
[31]
  AC50: 0.489 µM (active)
[32]
  AC50: 13.1 µM (active)
[33]
  AC50: 0.267 µM (active)
[34]
  AC50: 1.97 µM (active)
[35]
  AC50: 2.49 µM (active)
[36]
  AC50: 2.62 µM (active)
[37]
  AC50: 68.8 µM (active)

## Cc1noc(C)c1S(=O)(=O)N(C)C[C@@H]1Oc2ccc(NC(=O)Nc3ccccc3)cc2CC(=O)N([C@@H](C)CO)C[C@@H]1C
[38]
  AC50: 14.2 µM (active)
[39]
  AC50: 36.9 µM (active)
[40]
  AC50: 19.7 µM (active)
[41]
  AC50: 15.2 µM (active)

## CCOc1ccccc1NC(=O)c1cccc(C(=O)NC2CCCC2)c1
[42]
  IC50: 0.342 µM (active)

## O=C(Nc1nnc(C2CCCC2)o1)C1CCCCC1
[43]
  AC50: 165 µM (active)

## O=C(CCNC(=O)c1ccc(C(F)(F)F)cc1)N[C@@H]1CCCc2ccccc21
[44]
  AC50: 26 µM (active)
[45]
  AC50: 7.54 µM (active)

## COc1ccc(NC2=C(N3CCN(C(C)C)CC3)C(=O)c3ccccc3C2=O)cc1
[46]
  AC50: 3.28 µM (active)
[47]
  AC50: 16.6 µM (active)
[48]
  AC50: 45 µM (active)

## COc1ccc(-c2ccc3cc(C(=O)N4CCCC(CO)C4)ccc3c2)cn1 (configuration not stated)
[49]
  IC50: 6.77 µM (active)

## O=C(Nc1nccs1)c1cn(-c2ccccc2)nc1-c1ccc(Cl)cc1
[50]
  IC50: > 37.2 µM (inactive)

## O=C(O)Cc1c[nH]c2ccc(O)cc12
[51]
  IC50: > 100 µM (active)
Cytochrome P450 2C9
  AC50: inconclusive
NS3
  IC50: 69.3 µM (active)
